ChEMBL document CHEMBL1143509, “Novel cyclopentane dicarboxamide sodium channel blockers as a potential treatment for chronic pain” (Bioorg Med Chem Lett, 2005)

Tests used:
[1] = biological target: T1, Sodium channel protein type 9 subunit alpha (Homo sapiens, UniProt Q15858); assay: In vitro inhibitory concentration against voltage-gated sodium channel Nav1.7 in voltage-ion-probe-reader (VIPR) assay; format: functional
[2] = biological target: T1, Sodium channel protein type 9 subunit alpha; assay: Inhibitory constant against voltage-gated sodium channel Nav1.7 in electrophysiology assays (EP); format: functional
[3] = Half life period of the compound was determined in rat; format: ADME; conditions: in vivo
[4] = Bioavailability in rat; format: ADME, organism-based; conditions: in vivo
[5] = Clearance value of the compound was determined in plasma of rat; format: ADME, organism-based; conditions: read-out: Clp

T1 sequence (Q15858 whole entry): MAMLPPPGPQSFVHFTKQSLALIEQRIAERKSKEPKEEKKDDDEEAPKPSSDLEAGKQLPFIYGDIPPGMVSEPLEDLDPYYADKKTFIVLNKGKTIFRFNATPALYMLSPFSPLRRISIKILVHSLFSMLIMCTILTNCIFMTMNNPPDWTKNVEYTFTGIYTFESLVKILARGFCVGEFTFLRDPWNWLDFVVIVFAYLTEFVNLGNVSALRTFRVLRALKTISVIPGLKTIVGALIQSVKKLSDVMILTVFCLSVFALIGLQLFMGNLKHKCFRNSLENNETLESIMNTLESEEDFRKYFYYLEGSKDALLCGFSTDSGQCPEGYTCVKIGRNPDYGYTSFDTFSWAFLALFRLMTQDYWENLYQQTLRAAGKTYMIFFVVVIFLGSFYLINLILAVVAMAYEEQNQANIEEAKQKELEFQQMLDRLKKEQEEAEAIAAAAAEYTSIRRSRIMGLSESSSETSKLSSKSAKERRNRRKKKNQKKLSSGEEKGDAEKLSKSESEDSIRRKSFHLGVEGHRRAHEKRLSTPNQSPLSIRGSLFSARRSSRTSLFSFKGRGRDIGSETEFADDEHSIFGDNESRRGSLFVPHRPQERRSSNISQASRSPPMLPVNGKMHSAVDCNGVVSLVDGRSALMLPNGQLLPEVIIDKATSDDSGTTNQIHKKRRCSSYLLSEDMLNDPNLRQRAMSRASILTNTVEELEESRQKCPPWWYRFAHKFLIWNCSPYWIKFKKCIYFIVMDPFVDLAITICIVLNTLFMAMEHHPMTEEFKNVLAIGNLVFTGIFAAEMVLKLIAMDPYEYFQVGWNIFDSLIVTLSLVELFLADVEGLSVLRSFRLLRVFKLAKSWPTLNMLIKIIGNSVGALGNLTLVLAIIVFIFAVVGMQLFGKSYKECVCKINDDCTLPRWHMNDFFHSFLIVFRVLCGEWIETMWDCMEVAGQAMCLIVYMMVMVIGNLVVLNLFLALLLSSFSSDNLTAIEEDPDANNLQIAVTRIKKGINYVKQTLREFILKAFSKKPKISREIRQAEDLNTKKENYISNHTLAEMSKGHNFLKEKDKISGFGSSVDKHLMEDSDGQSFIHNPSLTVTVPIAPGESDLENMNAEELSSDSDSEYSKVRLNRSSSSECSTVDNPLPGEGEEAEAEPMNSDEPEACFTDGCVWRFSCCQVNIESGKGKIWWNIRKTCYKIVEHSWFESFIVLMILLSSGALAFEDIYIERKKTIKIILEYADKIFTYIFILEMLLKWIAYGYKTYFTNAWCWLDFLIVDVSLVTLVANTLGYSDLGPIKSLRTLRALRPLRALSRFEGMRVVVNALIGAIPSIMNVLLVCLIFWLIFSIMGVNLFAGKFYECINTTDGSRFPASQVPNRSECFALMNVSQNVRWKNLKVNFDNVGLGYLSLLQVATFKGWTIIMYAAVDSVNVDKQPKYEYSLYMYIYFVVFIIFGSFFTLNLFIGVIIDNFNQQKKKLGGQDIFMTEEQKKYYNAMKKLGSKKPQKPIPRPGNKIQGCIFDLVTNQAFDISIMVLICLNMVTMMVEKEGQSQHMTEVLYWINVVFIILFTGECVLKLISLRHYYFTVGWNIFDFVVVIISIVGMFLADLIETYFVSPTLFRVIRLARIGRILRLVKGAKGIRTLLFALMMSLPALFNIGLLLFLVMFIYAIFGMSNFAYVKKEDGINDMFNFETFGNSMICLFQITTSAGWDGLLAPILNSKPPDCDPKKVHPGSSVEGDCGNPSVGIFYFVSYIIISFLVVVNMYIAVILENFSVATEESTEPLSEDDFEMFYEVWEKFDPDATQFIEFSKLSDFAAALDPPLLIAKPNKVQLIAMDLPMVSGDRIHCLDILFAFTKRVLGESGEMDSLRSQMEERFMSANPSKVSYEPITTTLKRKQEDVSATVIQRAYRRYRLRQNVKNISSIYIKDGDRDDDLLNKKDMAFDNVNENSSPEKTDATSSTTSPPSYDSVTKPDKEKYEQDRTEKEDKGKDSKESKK

SMILES | IC50 [1] [nM] | Ki [2] [nM] | half-life [3] [min] | bioavailability [4] [%] | clearance [5] [mL/min/kg]
CN(Cc1ccc(-c2ccccc2S(N)(=O)=O)cc1)C(=O)CCC(=O)NCc1cccc(OC(F)(F)F)c1 | – | – | 30 | 27 | 141
CC(NC(=O)[C@H]1CCC[C@@H]1C(=O)NCc1ccc(-c2ccccc2S(N)(=O)=O)cc1)c1ccc(-c2cccs2)s1 (mixture of isomers) | 10000 | – | – | – | –
CC(NC(=O)[C@H]1CCC[C@@H]1C(=O)NCc1ccc(-c2cccs2)s1)c1ccc(-c2ccccc2S(N)(=O)=O)cc1 (mixture of isomers) | 1400 | 50 | – | – | –
CC(NC(=O)[C@H]1CCC[C@@H]1C(=O)N(C)Cc1ccc(-c2ccccc2S(N)(=O)=O)cc1)c1ccc(-c2cccs2)s1 (mixture of isomers) | 10000 | – | – | – | –
CN(Cc1ccc(-c2cccs2)s1)C(=O)[C@H]1CCC[C@@H]1C(=O)NCc1ccc(-c2ccccc2S(N)(=O)=O)cc1 (racemic) | 5300 | – | – | – | –
CN(Cc1ccc(-c2ccccc2S(N)(=O)=O)cc1)C(=O)[C@H]1CCC[C@@H]1C(=O)NCc1ccc(C(F)(F)F)cc1 (racemic) | 2500 | 280 | – | – | –
CN(Cc1ccc(-c2ccccc2S(N)(=O)=O)cc1)C(=O)[C@H]1CCC[C@@H]1C(=O)N(C)Cc1ccc(-c2cccs2)s1 (racemic) | > 10000 | – | – | – | –
NS(=O)(=O)c1ccccc1-c1ccc(CNC(=O)[C@H]2CCC[C@@H]2C(=O)NCc2ccccc2)cc1 (racemic) | 5000 | – | – | – | –
NS(=O)(=O)c1ccccc1-c1ccc(CNC(=O)[C@H]2CCC[C@@H]2C(=O)NCc2cccc(OC(F)(F)F)c2)cc1 (racemic) | 1100 | – | – | – | –
CN(Cc1ccc(-c2ccccc2S(N)(=O)=O)cc1)C(=O)[C@H]1CCC[C@@H]1C(=O)NCc1ccccc1 (racemic) | > 10000 | – | – | – | –
NS(=O)(=O)c1ccccc1-c1ccc(CNC(=O)[C@H]2CCC[C@@H]2C(=O)NCc2ccc(-c3ccccc3C(F)(F)F)cc2)cc1 (racemic) | 370 | 510 | – | – | –
NS(=O)(=O)c1ccccc1-c1ccc(CNC(=O)[C@H]2CCC[C@@H]2C(=O)NCc2ccc(OC(F)(F)F)cc2)cc1 (racemic) | 300 | 360 | – | – | –
COc1ccccc1-c1ccc(CNC(=O)[C@H]2CCC[C@@H]2C(=O)NCc2ccc(-c3ccccc3S(N)(=O)=O)cc2)cc1 (racemic) | 660 | 690 | – | – | –
Cc1ccccc1-c1ccc(CNC(=O)[C@H]2CCC[C@@H]2C(=O)NCc2ccc(-c3ccccc3S(N)(=O)=O)cc2)cc1 (racemic) | 2100 | 370 | – | – | –
CN(Cc1ccc(-c2ccccc2S(N)(=O)=O)cc1)C(=O)[C@H]1CCC[C@@H]1C(=O)NCc1cccc(OC(F)(F)F)c1 (racemic) | 1300 | 530 | – | – | –
COc1ccc(CNC(=O)[C@H]2CCC[C@@H]2C(=O)NCc2ccc(-c3ccccc3S(N)(=O)=O)cc2)cc1 (racemic) | 5000 | 12000 | – | – | –
NS(=O)(=O)c1ccccc1-c1ccc(CNC(=O)[C@H]2CCC[C@@H]2C(=O)NCc2ccc([N+](=O)[O-])cc2)cc1 (racemic) | 2800 | 2000 | – | – | –
CN(Cc1ccc(-c2ccccc2S(N)(=O)=O)cc1)C(=O)[C@H]1CCC[C@@H]1C(=O)NCc1ccc(-c2cccs2)s1 (racemic) | 760 | – | 72 | 3.3 | 13
CN(Cc1ccc(-c2ccccc2S(N)(=O)=O)cc1)C(=O)[C@H]1CCC[C@@H]1C(=O)NCc1ccc(OC(F)(F)F)cc1 (racemic) | 830 | 210 | 58.8 | 44 | 14
NS(=O)(=O)c1ccccc1-c1ccc(CNC(=O)[C@H]2CCC[C@@H]2C(=O)NCc2ccc(-c3ccccc3)cc2)cc1 (racemic) | 660 | 30 | – | – | –
COc1ccc(CNC(=O)[C@H]2CCC[C@@H]2C(=O)N(C)Cc2ccc(-c3ccccc3S(N)(=O)=O)cc2)cc1 (racemic) | 10000 | 2100 | – | – | –

Other lines, results leading:

IC50 [1] [nM] | Ki [2] [nM] | half-life [3] [min] | bioavailability [4] [%] | clearance [5] [mL/min/kg] | SMILES
520 | 410 | – | – | – | NS(=O)(=O)c1ccccc1-c1ccc(CNC(=O)/C=C\C(=O)NCc2ccc(-c3cccs3)s2)cc1
1400 | – | – | – | – | CC(C(=O)NCc1ccc(-c2ccccc2S(N)(=O)=O)cc1)C(C)C(=O)NCc1ccc(-c2cccs2)s1 (stereo not drawn)
2900 | 6200 | – | – | – | NS(=O)(=O)c1ccccc1-c1ccc(CNC(=O)c2cccc(C(=O)NCc3ccc(-c4cccs4)s3)c2)cc1
860 | – | – | – | – | NS(=O)(=O)c1ccccc1-c1ccc(CNC(=O)CC(=O)NCc2ccc(-c3cccs3)s2)cc1
3200 | – | – | – | – | NS(=O)(=O)c1ccccc1-c1ccc(CNC(=O)CCCC(=O)NCc2ccc(-c3cccs3)s2)cc1
2200 | 140 | – | – | – | NS(=O)(=O)c1ccccc1-c1ccc(CNC(=O)c2ccccc2C(=O)NCc2ccc(-c3cccs3)s2)cc1
150 | 150 | 30 | 1.9 | 68 | NS(=O)(=O)c1ccccc1-c1ccc(CNC(=O)CCC(=O)NCc2ccc(-c3cccs3)s2)cc1
2300 | – | – | – | – | CC(C)(CC(=O)NCc1ccc(-c2ccccc2S(N)(=O)=O)cc1)C(=O)NCc1ccc(-c2cccs2)s1
370 | 60 | 18 | 1.2 | 39 | NS(=O)(=O)c1ccccc1-c1ccc(CNC(=O)[C@H]2CCC[C@@H]2C(=O)NCc2ccc(-c3cccs3)s2)cc1 (racemic)
210 | – | – | – | – | NS(=O)(=O)c1ccccc1-c1ccc(CNC(=O)[C@H]2CC[C@@H]2C(=O)NCc2ccc(-c3cccs3)s2)cc1 (racemic)
840 | 5700 | – | – | – | C=C1[C@H](C(=O)NCc2ccc(-c3ccccc3S(N)(=O)=O)cc2)[C@H]1C(=O)NCc1ccc(-c2cccs2)s1 (racemic)
1400 | 2100 | – | – | – | NS(=O)(=O)c1ccccc1-c1ccc(CNC(=O)[C@H]2CCCC[C@@H]2C(=O)NCc2ccc(-c3cccs3)s2)cc1 (racemic)
1600 | 670 | – | – | – | NS(=O)(=O)c1ccccc1-c1ccc(CNC(=O)[C@H]2CCC[C@H]2C(=O)NCc2ccc(-c3cccs3)s2)cc1 (racemic)
